Measured values: patent US20090305994A1, “Compounds Modulating Vegf Receptor and Uses Thereof” (priority 2005, published 2009)
No end group written: not given here.

Key:
[1] = system: ERK1/2; experiment: ERK1/2 activation in BAEC (western blot); assay type: cell-based, bovine; conditions: serum deprived BAEC, 15 minutes at 37° C.
Procedure: Effect of QK and VEGF15 on ERK1/2 activation. Serum deprived BAEC were treated with QK (a) or with VEGF 15 (b) in absence or in presence of VEGF165 (100 ng/ml) for 15 minutes at 37° C. and then dissolved in RIPA-SDS buffer. Total ERK1/2 and the phosphorylated form of ERK1/2 were visualized by specific antibodies.
Western blot. Cells were plated on six-well dishes and serum starved overnight. On the next day, cells were treated with different amount of peptide in absence or in presence of VEGF165 for 15 minutes at 37° C. and then dissolved in RIPA-SDS buffer (50 mM Tris-HCl (pH 7.5), 150 mM NaCl, 1% NP-40, 0.25% deoxycholate, 9.4 mg/50 ml sodium orthovanadate, […]). In some experiments, total KDR and Flt-1 were immunoprecipitated from an equal amount of whole-cell protein extracts using protein A/G agarose beads conjugated with antibodies raised against total KDR or Flt-1 (R&D). Proteins from whole-cell extracts or immunocomplexes were resolved by PAGE and transferred to nitrocellulose. Total extracellular signal-regulated kinase 1 and 2 (ERK1/2), serine-tyrosin phosphorylated ERK1/2, phospho-tyrosine (Cell signaling) and phospho-RB (p-RB) (Santacruz) were visualized by specific antibodies, anti-rabbit HRP-conjugated secondary antibody (Santacruz) and standard chemiluminescence (Pierce).
Activation of the proliferative intracellular pathways. We then explored whether QK is able to start the pathways of endothelial cell activation. It is well established that angiogenesis modulate by VEGF is largely ERK1/2 dependent, leading to DNA synthesis and cell proliferation (7). Accordingly, we assessed the effects of QK on this kinase. […] To verify whether ERK1/2 activation to QK results in cell proliferation, we studied cell proliferation indicators such as cell number, DNA synthesis and cyclin activation.

[2] = system: VEGF receptors; experiment: VEGF receptors binding assay ([125I]-VEGF competition on BAEC membranes); set-up: species or system bovine
Procedure: VEGF receptors binding and activation. a) VEGF competitive binding on BAEC. 1 μg of membrane protein was plated with QK and [^125I]-VEGF (500000 cpm, 10^−10 M). b) KDR activation. After stimulation total KDR was immunoprecipitated from a whole-cell protein extracts and phospho-tyrosine was visualized by a specific antibody, anti-rabbit HRP-conjugated secondary antibody and standard chemiluminescence. c) Flt-1 activation. After stimulation total Flt-1 was immunoprecipitated from a whole-cell protein extracts and phospho-tyrosine was visualized by specific antibody, anti-rabbit HRP-conjugated secondary antibody and standard chemiluminescence.
VEGF receptors binding assay. Cells were homogenized in lysis buffer (12.5 mM Tris pH 6.8, 5 mM EDTA, 5 mM EGTA) and membranes were separated from the cytosol fraction by centrifugation. Membranes were suspended in binding buffer (75 mM Tris, 12.5 mM MgCl2, 2 mM EDTA) and an equal amount of membrane protein (1 μg) was plated in 96 well plates with QK (10^−13 to 10^−8 M) and [^125I]-VEGF (Amersham). VEGF binding was evaluated with a y-counter.
VEGF receptors binding assay. To verify the biological behavior of QK peptide, we tested its ability to compete for the binding sites of VEGF on cell membranes (FIG. 1a). We competed membranes, obtained from isolated BAEC, with iodinated VEGF and then with increasing amount of QK.

[3] = system: WKY rats; experiment: Ischemic hindlimb model, digital angiographies and blood flow determination; assay type: in vivo, rat; conditions: 14 days

KVKFMDVYQRSYCHP (KVKFMDVYQRSYCHP-NH2) [VEGF15, natural peptide reproducing the VEGF helix 17-25, used as control peptide]
ERK1/2 activation [1]: had no effect on ERK activation | binding to the VEGF receptor [2]: does not bind to the receptor | BEADS Ischemic to non ischemic ([3]; dyed beads dilution, muscle ratio, infusion 10^-7 M): 0.59 ± 0.15 | ANGIOGRAPHY Number of TFC ([3]; ischemic hindlimb, chronic intrafemoral artery infusion 10^-7 M): 38 ± 2
